Assay: MALDI-TOF screening of Ni^2+ dependent hydrolysis in a combinatorial peptide library
Type: physicochemical
Conditions: CH3CO-Gly-Ala-Thr-X-His-Z-Lys-Phe-Leu-NH2 library, Ni^2+ 2 mM, pH 8.2, 10 mM Tris, score=24/tm
Procedure, shortened: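 The screen used 1 mM peptide mixtures in 10 mM Tris, pH 8.2, with 2 mM Ni2+ at two temperatures, 37 °C and 45 °C. Product appearance and substrate decline were monitored visually by MALDI-TOF over 8 h. Scores for X and Z were then summed by row and column to rank substitutions.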

Substance | hydrolysis score from MALDI-TOF screening (37° C.) | hydrolysis score from MALDI-TOF screening (45° C.)
Ac-GATMHTKFL-NH2 [TMHT] | 0 (a score of 0 if no trace of the product of hydrolysis was seen after 8 hours of incubation) | 0 (a score of 0 if no trace of the product of hydrolysis was seen after 8 hours of incubation)
Ac-GATMHVKFL-NH2 [TMHV] | 0 (a score of 0 if no trace of the product of hydrolysis was seen after 8 hours of incubation) | 0 (a score of 0 if no trace of the product of hydrolysis was seen after 8 hours of incubation)
Ac-GATMHWKFL-NH2 [TMHW] | 3 (a score of 3 for detection at 8 hours) | 3 (a score of 3 for detection at 8 hours)
Ac-GATMHYKFL-NH2 [TMHY] | 0 (a score of 0 if no trace of the product of hydrolysis was seen after 8 hours of incubation) | 0 (a score of 0 if no trace of the product of hydrolysis was seen after 8 hours of incubation)
Ac-GATNHAKFL-NH2 [TNHA] | 0 (a score of 0 if no trace of the product of hydrolysis was seen after 8 hours of incubation) | 0 (a score of 0 if no trace of the product of hydrolysis was seen after 8 hours of incubation)
Ac-GATNHDKFL-NH2 [TNHD] | 0 (a score of 0 if no trace of the product of hydrolysis was seen after 8 hours of incubation) | 0 (a score of 0 if no trace of the product of hydrolysis was seen after 8 hours of incubation)
Ac-GATNHEKFL-NH2 [TNHE] | 0 (a score of 0 if no trace of the product of hydrolysis was seen after 8 hours of incubation) | 0 (a score of 0 if no trace of the product of hydrolysis was seen after 8 hours of incubation)
Ac-GATNHFKFL-NH2 [TNHF] | 0 (a score of 0 if no trace of the product of hydrolysis was seen after 8 hours of incubation) | 0 (a score of 0 if no trace of the product of hydrolysis was seen after 8 hours of incubation)
Ac-GATNHGKFL-NH2 [TNHG] | 0 (a score of 0 if no trace of the product of hydrolysis was seen after 8 hours of incubation) | 0 (a score of 0 if no trace of the product of hydrolysis was seen after 8 hours of incubation)
Ac-GATNHHKFL-NH2 [TNHH] | 0 (a score of 0 if no trace of the product of hydrolysis was seen after 8 hours of incubation) | 0 (a score of 0 if no trace of the product of hydrolysis was seen after 8 hours of incubation)
Ac-GATNHIKFL-NH2 [TNHI] | 0 (a score of 0 if no trace of the product of hydrolysis was seen after 8 hours of incubation) | 0 (a score of 0 if no trace of the product of hydrolysis was seen after 8 hours of incubation)
Ac-GATNHKKFL-NH2 [TNHK] | 0 (a score of 0 if no trace of the product of hydrolysis was seen after 8 hours of incubation) | 0 (a score of 0 if no trace of the product of hydrolysis was seen after 8 hours of incubation)
Ac-GATNHLKFL-NH2 [TNHL] | 0 (a score of 0 if no trace of the product of hydrolysis was seen after 8 hours of incubation) | 0 (a score of 0 if no trace of the product of hydrolysis was seen after 8 hours of incubation)
Ac-GATNHNKFL-NH2 [TNHN] | 0 (a score of 0 if no trace of the product of hydrolysis was seen after 8 hours of incubation) | 0 (a score of 0 if no trace of the product of hydrolysis was seen after 8 hours of incubation)
Ac-GATNHPKFL-NH2 [TNHP] | 0 (a score of 0 if no trace of the product of hydrolysis was seen after 8 hours of incubation) | 0 (a score of 0 if no trace of the product of hydrolysis was seen after 8 hours of incubation)
Ac-GATNHQKFL-NH2 [TNHQ] | 0 (a score of 0 if no trace of the product of hydrolysis was seen after 8 hours of incubation) | 0 (a score of 0 if no trace of the product of hydrolysis was seen after 8 hours of incubation)
Ac-GATNHRKFL-NH2 [TNHR] | 0 (a score of 0 if no trace of the product of hydrolysis was seen after 8 hours of incubation) | 3 (a score of 3 for detection at 8 hours)
Ac-GATNHSKFL-NH2 [TNHS] | 0 (a score of 0 if no trace of the product of hydrolysis was seen after 8 hours of incubation) | 0 (a score of 0 if no trace of the product of hydrolysis was seen after 8 hours of incubation)
Ac-GATNHTKFL-NH2 [TNHT] | 0 (a score of 0 if no trace of the product of hydrolysis was seen after 8 hours of incubation) | 0 (a score of 0 if no trace of the product of hydrolysis was seen after 8 hours of incubation)
Ac-GATNHVKFL-NH2 [TNHV] | 0 (a score of 0 if no trace of the product of hydrolysis was seen after 8 hours of incubation) | 0 (a score of 0 if no trace of the product of hydrolysis was seen after 8 hours of incubation)
Ac-GATNHWKFL-NH2 [TNHW] | 0 (a score of 0 if no trace of the product of hydrolysis was seen after 8 hours of incubation) | 3 (a score of 3 for detection at 8 hours)
Ac-GATNHYKFL-NH2 [TNHY] | 0 (a score of 0 if no trace of the product of hydrolysis was seen after 8 hours of incubation) | 0 (a score of 0 if no trace of the product of hydrolysis was seen after 8 hours of incubation)

Substance | hydrolysis score from MALDI-TOF screening (37° C.) | hydrolysis score from MALDI-TOF screening (45° C.)
Ac-GATPHAKFL-NH2 [TPHA] | – | 0 (a score of 0 if no trace of the product of hydrolysis was seen after 8 hours of incubation)
Ac-GATPHDKFL-NH2 [TPHD] | – | 0 (a score of 0 if no trace of the product of hydrolysis was seen after 8 hours of incubation)
Ac-GATPHEKFL-NH2 [TPHE] | – | 0 (a score of 0 if no trace of the product of hydrolysis was seen after 8 hours of incubation)
Ac-GATPHFKFL-NH2 [TPHF] | – | 0 (a score of 0 if no trace of the product of hydrolysis was seen after 8 hours of incubation)
Ac-GATPHGKFL-NH2 [TPHG] | – | 0 (a score of 0 if no trace of the product of hydrolysis was seen after 8 hours of incubation)
Ac-GATPHHKFL-NH2 [TPHH] | – | 0 (a score of 0 if no trace of the product of hydrolysis was seen after 8 hours of incubation)
Ac-GATPHIKFL-NH2 [TPHI] | – | 0 (a score of 0 if no trace of the product of hydrolysis was seen after 8 hours of incubation)
Ac-GATPHKKFL-NH2 [TPHK] | – | 0 (a score of 0 if no trace of the product of hydrolysis was seen after 8 hours of incubation)
Ac-GATPHLKFL-NH2 [TPHL] | – | 0 (a score of 0 if no trace of the product of hydrolysis was seen after 8 hours of incubation)
Ac-GATPHNKFL-NH2 [TPHN] | – | 0 (a score of 0 if no trace of the product of hydrolysis was seen after 8 hours of incubation)
Ac-GATPHPKFL-NH2 [TPHP] | – | 0 (a score of 0 if no trace of the product of hydrolysis was seen after 8 hours of incubation)
Ac-GATPHQKFL-NH2 [TPHQ] | – | 0 (a score of 0 if no trace of the product of hydrolysis was seen after 8 hours of incubation)
Ac-GATPHRKFL-NH2 [TPHR] | – | 0 (a score of 0 if no trace of the product of hydrolysis was seen after 8 hours of incubation)
Ac-GATPHSKFL-NH2 [TPHS] | – | 0 (a score of 0 if no trace of the product of hydrolysis was seen after 8 hours of incubation)
Ac-GATPHTKFL-NH2 [TPHT] | – | 0 (a score of 0 if no trace of the product of hydrolysis was seen after 8 hours of incubation)
Ac-GATPHVKFL-NH2 [TPHV] | – | 0 (a score of 0 if no trace of the product of hydrolysis was seen after 8 hours of incubation)
Ac-GATPHWKFL-NH2 [TPHW] | – | 0 (a score of 0 if no trace of the product of hydrolysis was seen after 8 hours of incubation)
Ac-GATPHYKFL-NH2 [TPHY] | – | 0 (a score of 0 if no trace of the product of hydrolysis was seen after 8 hours of incubation)
Ac-GATQHAKFL-NH2 [TQHA] | 0 (a score of 0 if no trace of the product of hydrolysis was seen after 8 hours of incubation) | 0 (a score of 0 if no trace of the product of hydrolysis was seen after 8 hours of incubation)
Ac-GATQHDKFL-NH2 [TQHD] | 0 (a score of 0 if no trace of the product of hydrolysis was seen after 8 hours of incubation) | 0 (a score of 0 if no trace of the product of hydrolysis was seen after 8 hours of incubation)
Ac-GATQHEKFL-NH2 [TQHE] | 0 (a score of 0 if no trace of the product of hydrolysis was seen after 8 hours of incubation) | 0 (a score of 0 if no trace of the product of hydrolysis was seen after 8 hours of incubation)
Ac-GATQHFKFL-NH2 [TQHF] | 0 (a score of 0 if no trace of the product of hydrolysis was seen after 8 hours of incubation) | 0 (a score of 0 if no trace of the product of hydrolysis was seen after 8 hours of incubation)

From US8969516B2, “Method of hydrolysis of peptide bond” (priority 2006, dated 2015)
